Experimental data taken from US8383581B2, “Short-chain peptides as parathyroid hormone (PTH) receptor agonist” (Cadila Healthcare Limited, priority 2009, dated 2013).
Where a SMILES comes first, the peptide text is derived from it. Where no end group is shown, it is not given here. [ ]: non-standard residue; d: D form. ξ: configuration not given here. ξBip(2'-Et-4'-OMe) = CCc1cc(OC)ccc1-c1ccc(CC(N)C(=O)O)cc1; Arg(NO2) = N=C(NCCC[C@H](N)C(=O)O)N[N+](=O)[O-]; αMePhe(2,6-F2) = C[C@](N)(Cc1c(F)cccc1F)C(=O)O; ξαMePhe(2,6-F2) = CC(N)(Cc1c(F)cccc1F)C(=O)O; αMePhe(2-F) = C[C@](N)(Cc1ccccc1F)C(=O)O; ξαMePhe(2-F) = CC(N)(Cc1ccccc1F)C(=O)O; hhPhe = N[C@@H](CCCc1ccccc1)C(=O)O; hArg = N=C(N)NCCCC[C@H](N)C(=O)O; hCit = NC(=O)NCCCC[C@H](N)C(=O)O; Cit = NC(=O)NCCC[C@H](N)C(=O)O; Nle = CCCC[C@H](N)C(=O)O; ξαMeP = CC1(C(=O)O)CCCN1; Ac5c = NC1(C(=O)O)CCCC1; Aib = CC(C)(N)C(=O)O

T1: rat PTH-1R (rat PTHR endogenously expressed on UMR-106 rat osteosarcoma cells) (rat, UniProt P25961 27-591)
T1 sequence (looked up): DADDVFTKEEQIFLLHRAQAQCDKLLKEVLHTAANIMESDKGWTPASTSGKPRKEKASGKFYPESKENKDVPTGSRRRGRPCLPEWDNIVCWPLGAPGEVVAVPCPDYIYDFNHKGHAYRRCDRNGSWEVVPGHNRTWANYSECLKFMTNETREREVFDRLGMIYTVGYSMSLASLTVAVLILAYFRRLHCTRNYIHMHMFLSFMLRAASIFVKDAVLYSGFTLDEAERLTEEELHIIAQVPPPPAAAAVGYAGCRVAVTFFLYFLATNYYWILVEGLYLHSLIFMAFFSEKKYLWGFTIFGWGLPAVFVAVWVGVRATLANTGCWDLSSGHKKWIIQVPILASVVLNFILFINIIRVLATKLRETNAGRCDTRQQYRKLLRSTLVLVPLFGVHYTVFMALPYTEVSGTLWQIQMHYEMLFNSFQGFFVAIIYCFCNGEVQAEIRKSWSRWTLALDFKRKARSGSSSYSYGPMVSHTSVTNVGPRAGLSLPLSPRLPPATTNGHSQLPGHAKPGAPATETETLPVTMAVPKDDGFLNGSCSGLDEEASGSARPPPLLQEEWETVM

B1: Seq. ID. 461 (peptide)
peptide: [Aib]V[Aib]EIQ[αMePhe(2,6-F2)][Nle]HQ[hCit]A[Arg(NO2)][αMePhe(2-F)]
B2: Seq. ID. 372 (peptide)
peptide: [Ac5c]V[Aib]EIQ[αMePhe(2-F)][Nle]HQ[Cit][Aib][Aib][αMePhe(2,6-F2)]
B3: Seq. ID. 444 (peptide)
peptide: [Ac5c]V[Aib]EIQ[αMePhe(2-F)][Nle]HQ[hCit][Aib][αMePhe(2,6-F2)][αMePhe(2-F)]
B4: Seq. ID. 429 (peptide)
peptide: [Aib]V[Aib]EIQ[αMePhe(2,6-F2)][Nle]HQ[hCit]A[Aib][αMePhe(2-F)]
B5: Seq. ID. 351 (peptide)
peptide: [Ac5c]V[Aib]EIQ[αMePhe(2,6-F2)][Nle]HQ[Cit]A[Cit][αMePhe(2-F)]
B6: Seq. ID. 418 (peptide)
peptide: [Aib]V[Aib]EIQ[αMePhe(2-F)][Nle]HQ[hCit][Aib][Cit][αMePhe(2,6-F2)]
B7: Seq. ID. 397 (peptide)
peptide: [Aib]V[Aib]EIQ[αMePhe(2,6-F2)][Nle]HQ[Cit]A[Arg(NO2)][αMePhe(2-F)]

Key:
[1] = Stability of peptides in human plasma; assay type: in vitro ADME; conditions: human, plasma; for metabolised at 24 h, 2 μM: pH 7.8
Protocol: (§1) b) Stability of Peptides in Human Plasma, Simulated Gastric Fluid, Intestinal Fluid and Liver Microsomes (Ex-Vivo): Different short-chain peptides (final concentration 2 μM) were incubated with either pooled human plasma (7.5 μL) or simulated gastric fluid (pH 1.5; composition HCl, NaCl and Pepsin) or simulated intestinal fluid (pH 7.5) or human liver microsomes, for 0, 2, 4, 6, 12 and 24 h (37° C.; 50 mM triethanolamine-HCl buffer; pH 7.8). Concentrations of human plasma/simulated gastric fluid/simulated intestinal fluid/human liver microsomes were selected in preliminary experiments to provide degradation of approximately 50% of PTH(1-34) within 1 h, therefore allowing time-dependent degradation to be viewed over 24 h. Reactions were terminated by the addition of TFA/H2O ([…], 10% (v/v)). The reaction products were then applied to a Vydac C18 analytical column (4.6×250-mm) and the major degradation fragment separated from intact short-chain peptides. The column was equilibrated with TFA/H20, at a flow rate of 1 mL/min. Using 0.1% (v/v) TFA in 70% acetonitrile/H2O, the concentration of acetonitrile in the eluting solvent was raised from 0% to 28% over 10 min and from 28% to 42% over 30 min. The absorbance was monitored at 206 nm using UV detector and peaks were collected manually prior to ESI-MS analysis. Area under the curve was measured for test peptides and their metabolites and percentage degradation were calculated at each time point over a period of 24 h. Stability study results of selected peptides, in human plasma, simulated gastric fluid, intestinal fluid and liver microsomes (in vitro) are listed in Table 4.

[2] = Stability of peptides in simulated intestinal fluid (pH 7.5); assay type: in vitro ADME; conditions: pH 7.5; for half-life: simulated gi fluid; for % degradation of peptides in 24 h when incubated with simulated intestinal fluid: 2 μM
Protocol: as §1

[3] = Stability of peptides in human liver microsomes; assay type: in vitro ADME; conditions: human, microsomes; for % degradation of peptides in 24 h when incubated with liver microsomes: 2 μM, pH 7.8
Protocol: as §1

[4] = Stability of peptides in simulated gastric fluid (pH 1.5; HCl, NaCl and Pepsin); assay type: in vitro ADME; conditions: pH 1.5; for % degradation of peptides in 24 h when incubated with simulated gastric fluid: 2 μM; for half-life: simulated gi fluid
Protocol: as §1

[5] = target: T1, rat PTH-1R (rat PTHR endogenously …); experiment: cell-based or functional assay

Molecule | half-life [1] [h] | metabolised at 24 h, 2 μM [1] [%] | half-life [2] [h] | % degradation of peptides in 24 h when incubated with simulated intestinal fluid [2] [%] | half-life (t1/2) in liver microsomes [3] | % degradation of peptides in 24 h when incubated with liver microsomes [3] [%] | % degradation of peptides in 24 h when incubated with simulated gastric fluid [4] [%] | half-life [4] [h] | half-life [3] [h] | half-life (t1/2) in human plasma [1] | cAMP released with respect to control, 1 nM peptide, UMR-106 cells [5] | cAMP released with respect to control, 10 nM peptide, UMR-106 cells [5] | cAMP released with respect to control, 100 nM peptide, UMR-106 cells [5]
CCCC[C@H](NC(=O)C(C)(Cc1c(F)cccc1F)NC(=O)[C@H](CCC(N)=O)NC(=O)[C@@H](NC(=O)[C@H](CCC(=O)O)NC(=O)C(C)(C)NC(=O)[C@@H](NC(=O)C1(N)CCCC1)C(C)C)[C@@H](C)CC)C(=O)N[C@@H](Cc1c[nH]cn1)C(=O)N[C@@H](CCC(N)=O)C(=O)NC(C)(Cc1c(F)cccc1F)C(=O)NC(C)(C)C(=O)N[C@@H](CCCNC(N)=O)C(=O)NC(C)(Cc1ccccc1F)C(N)=O (stereo partly shown) [Seq. ID. 480] (H-[Ac5c]V[Aib]EIQ[ξαMePhe(2,6-F2)][Nle]HQ[ξαMePhe(2,6-F2)][Aib][Cit][ξαMePhe(2-F)]-NH2) | > 24 | 0 | > 24 | 00 | (5) h | 32 | 00 | > 24 | – | – | – | – | –
CCCC[C@H](NC(=O)C(C)(Cc1ccccc1F)NC(=O)[C@H](CCC(N)=O)NC(=O)[C@@H](NC(=O)[C@H](CCC(=O)O)NC(=O)C(C)(C)NC(=O)[C@@H](NC(=O)C1(N)CCCC1)C(C)C)[C@@H](C)CC)C(=O)N[C@@H](Cc1c[nH]cn1)C(=O)N[C@@H](CCC(N)=O)C(=O)N[C@@H](CCCNC(N)=O)C(=O)NC(C)(C)C(=O)NC(C)(Cc1c(F)cccc1F)C(=O)NC(C)(Cc1ccccc1F)C(N)=O (stereo partly shown) [Seq. ID. 380] (H-[Ac5c]V[Aib]EIQ[ξαMePhe(2-F)][Nle]HQ[Cit][Aib][ξαMePhe(2,6-F2)][ξαMePhe(2-F)]-NH2) | > 24 | 0 | > 24 | 00 | – | 86 | 50 | 4 | 2 | – | – | – | –
CCCC[C@H](NC(=O)[C@H](CC(C)C)NC(=O)[C@H](CCC(N)=O)NC(=O)[C@@H](NC(=O)[C@H](CCC(=O)O)NC(=O)C(C)(C)NC(=O)[C@@H](NC(=O)C1(N)CCCC1)C(C)C)[C@@H](C)CC)C(=O)N[C@@H](Cc1c[nH]cn1)C(=O)N[C@@H](CCC(N)=O)C(=O)NC(C)(Cc1c(F)cccc1F)C(=O)NC(C)(C)C(=O)N[C@@H](CCCNC(N)=O)C(=O)NC(Cc1ccc(-c2ccc(OC)cc2CC)cc1)C(=O)N[C@@H](CCCc1ccccc1)C(N)=O (stereo partly shown) [Seq. ID. 805] (H-[Ac5c]V[Aib]EIQL[Nle]HQ[ξαMePhe(2,6-F2)][Aib][Cit][ξBip(2'-Et-4'-OMe)][hhPhe]-NH2) | > 24 | 0 | > 24 | 00 | – | 82 | 49 | 4 | 2 | – | – | – | –
CCCC[C@H](NC(=O)C(C)(Cc1ccccc1F)NC(=O)[C@H](CCC(N)=O)NC(=O)[C@@H](NC(=O)[C@H](CCC(=O)O)NC(=O)C1(NC(=O)[C@@H](NC(=O)C2(N)CCCC2)C(C)C)CCCC1)[C@@H](C)CC)C(=O)N[C@@H](Cc1c[nH]cn1)C(=O)N[C@@H](CCC(N)=O)C(=O)N[C@@H](CCCCNC(=N)N)C(=O)N1CCCC1(C)C(=O)N[C@@H](CCCCN)C(=O)NC(C)(Cc1c(F)cccc1F)C(N)=O (stereo partly shown) [Seq. ID. 100] (H-[Ac5c]V[Ac5c]EIQ[ξαMePhe(2-F)][Nle]HQ[hArg][ξαMeP]K[ξαMePhe(2,6-F2)]-NH2) | > 24 | 0 | > 24 | 00 | – | 82 | 49 | 4 | 2 | – | – | – | –
CCCC[C@H](NC(=O)C(C)(Cc1ccccc1F)NC(=O)[C@H](CCC(N)=O)NC(=O)[C@@H](NC(=O)[C@H](CCC(=O)O)NC(=O)C(C)(C)NC(=O)[C@@H](NC(=O)C(C)(C)N)C(C)C)[C@@H](C)CC)C(=O)N[C@@H](Cc1c[nH]cn1)C(=O)N[C@@H](CCC(N)=O)C(=O)NC(C)(C)C(=O)NC(C)(C)C(=O)NC(C)(Cc1c(F)cccc1F)C(=O)NC(C)(Cc1ccccc1F)C(N)=O (stereo partly shown) [Seq. ID. 570] (H-[Aib]V[Aib]EIQ[ξαMePhe(2-F)][Nle]HQ[Aib][Aib][ξαMePhe(2,6-F2)][ξαMePhe(2-F)]-NH2) | – | 71 | 0.5 | 100 | – | 100 | 100 | 0.5 | 0.5 | (9) h | – | – | –
B1 | – | – | – | – | – | – | – | – | – | – | 56 percent of control | 101 percent of control | 126 percent of control
B2 | – | – | – | – | – | – | – | – | – | – | 32 percent of control | 71 percent of control | 99 percent of control
B3 | – | – | – | – | – | – | – | – | – | – | 26 percent of control | 67 percent of control | 81 percent of control
B4 | – | – | – | – | – | – | – | – | – | – | 39 percent of control | 101 percent of control | 120 percent of control
B5 | – | – | – | – | – | – | – | – | – | – | 38 percent of control | 79 percent of control | 119 percent of control
B6 | – | – | – | – | – | – | – | – | – | – | 29 percent of control | 52 percent of control | 69 percent of control
B7 | – | – | – | – | – | – | – | – | – | – | 38 percent of control | 102 percent of control | 117 percent of control
